The text below walks through data of patent US10738056B2 (Aduro BioTech, Inc., priority 2017, dated 2020).

Structures are written as SMILES. A value given as a limit tells only on which side of the number the result lay.

Assay [1] relates to cGAS/STING pathway in THP1 cells. Kind of assay: THP1 cell-based cGAS/STING pathway activity assay (IRF-3-linked luciferase reporter). The conditions noted are these: Homo sapiens, THP-1. A digest of the protocol: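 THP1 cells carrying an IRF-3-driven luciferase reporter were read across a range of compound concentrations, and IC50 values were derived from these concentration responses; the assay upper limit was 100 μM.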
For orientation: In a reporter assay the amount or activity of a reporter protein is the signal.

The target of assay [2] is Human cGAS amino acids 155-522 (Homo sapiens (Human), UniProt Q8N884). Put plainly: cGAS biochemical activity assay (ATP remaining, Kinase-Glo Max luminescence). To be noted: human cGAS 155-522, ATP remaining (Kinase-Glo Max); read-out: cGAS IC50.
Sequence of Human cGAS amino acids 155-522 (Q8N884 157-522): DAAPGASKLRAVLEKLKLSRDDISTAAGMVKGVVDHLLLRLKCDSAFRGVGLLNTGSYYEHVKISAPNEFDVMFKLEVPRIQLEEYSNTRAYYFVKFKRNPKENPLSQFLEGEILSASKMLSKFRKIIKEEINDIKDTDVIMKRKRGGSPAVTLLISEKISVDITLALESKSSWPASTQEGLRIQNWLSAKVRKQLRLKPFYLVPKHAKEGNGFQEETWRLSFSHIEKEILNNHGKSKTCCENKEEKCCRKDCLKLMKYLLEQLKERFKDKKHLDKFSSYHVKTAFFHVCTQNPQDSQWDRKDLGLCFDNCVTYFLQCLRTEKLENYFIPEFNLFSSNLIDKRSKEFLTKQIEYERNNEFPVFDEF
Assay [3] relates to RANTES/CCL5 secretion by Trex1-KO BMM. Put plainly: Inhibition of RANTES/CCL5 secretion by Trex1-KO bone marrow-derived macrophages. Details: key to BMM IC50 R (RANTES): A: an IC50 value less than 5 μM; B: an IC50 value between 5 and 20 μM; where an IC50 value could not be calculated from the data. The conditions noted are these: RANTES secretion; for IC50: Mus musculus, Macrophage, read-out: BMM IC50 R (RANTES). It counts as cell-based, mice. On the procedure: (§1) A cellular assay can be used to asses the compounds of the invention for their ability to inhibit cytokine production. Bone marrow macrophages harvested from mice can be used to determine response as a function of compound concentration.
(§2) The inhibition of secreted cytokine was measured in bone marrow-derived macrophages (BMMs) from diseased mice to evaluate the potency of compounds of the invention as described herein. […] To derive bone marrow macrophages, marrow extracted from the femurs and tibias were harvested from Trex1-KO mice was cultured in growth media supplemented with macrophage colony-stimulating factor (M-CSF). Differentiated BMM were harvested and frozen for subsequent experimentation. For treatment with compound C1089 (see Example 13), a frozen stock of Trex1-KO BMM was thawed and 1×10^5 cells were plated in 96 well format. BMMs were treated with a dilution series of C1089 and incubated overnight at 37° C. 5% CO2, at which point cellular supernatants were harvested and stored at −80° C. for subsequent analysis. The media used for this dilution series was without FBS. Remaining cells were evaluated for viability using Cell Titer Glo 2.0 kit according to the manufacturer instructions. BMM supernatants were evaluated for the secreted cytokine […] (RANTES/CCL5) or for secreted cytokine monocyte chemoattractant protein 1 (MCP-1/CCL2) using cytometric bead array mouse Flex Set kits (BD Biosciences). Cytokine concentration was calculated from a standard curve and normalized to vehicle (DMSO) treated cells.

The subject of assay [4] is MCP-1/CCL2 secretion by Trex1-KO BMM. Put plainly: Inhibition of MCP-1/CCL2 secretion by Trex1-KO bone marrow-derived macrophages. In kind it is cell-based, mice. Further details: key to BMM IC50 M (MCP-1): A: an IC50 value less than 5 μM; B: an IC50 value between 5 and 20 μM; where an IC50 value could not be calculated from the data. The conditions noted are these: MCP-1 secretion. How it is done: as §1, §2

The IC50 is the concentration at which inhibition is half-maximal. In the case of `COc1ccc(N)c2oc(-c3c(C)[nH]c4c(-c5ccccc5)c(C(F)(F)F)nn4c3=O)nc12` [Compound C1154, 6-(7-amino-4-methoxybenzo[d]oxazol-2-yl)-5-methyl-3-phenyl-2-(trifluoromethyl)pyrazolo[1,5-a]pyrimidin-7(4H)-one], the IC50 in assay [1] and in assay [2] was < 20 µM throughout. Besides, the “BMM IC50 R (RANTES)” value in assay [3] is “C”. Besides, the “BMM IC50 M (MCP-1)” value in assay [4] is on record as “C”.
Take `COc1cccc2oc(-c3c(C(F)(F)F)[nH]c4c(-c5ccccc5)c(C(F)(F)F)nn4c3=O)nc12` [Compound C1077, 6-(4-methoxybenzo[d]oxazol-2-yl)-3-phenyl-2,5-bis(trifluoromethyl)pyrazolo[1,5-a]pyrimidin-7(4H)-one]: the IC50 in assay [1] and in assay [2] was < 20 µM each time. In addition, in assay [3], the “BMM IC50 R (RANTES)” value is “C”. Further, in assay [4], the “BMM IC50 M (MCP-1)” value is recorded as “C”.
For `Cc1[nH]c2c(-c3ccccc3)c(C(F)(F)F)nn2c(=O)c1-c1nc2c(OCC(=O)O)cccc2o1` [Compound C1117, 2-((2-(5-methyl-7-oxo-3-phenyl-2-(trifluoromethyl)-4,7-dihydropyrazolo[1,5-a]pyrimidin-6-yl)benzo[d]oxazol-4-yl)oxy)acetic acid], the IC50 is > 100 µM in assay [1] and < 20 µM in assay [2]. The “BMM IC50 R (RANTES)” value in assay [3] is recorded as “C”. For the same compound, in assay [4], the “BMM IC50 M (MCP-1)” value is listed as “C”.
As for `COCCOCc1[nH]c2c(-c3ccccc3)c(C(F)(F)F)nn2c(=O)c1-c1nc2c(OC)cccc2o1` [Compound C1151, 6-(4-methoxybenzo[d]oxazol-2-yl)-5-((2-methoxyethoxy)methyl)-3-phenyl-2-(trifluoromethyl)pyrazolo[1,5-a]pyrimidin-7(4H)-one], the IC50 in assay [1] was < 20 µM; in assay [2] it was < 20 µM; in assay [3] it was 5 to 20 µM. The “BMM IC50 M (MCP-1)” value in assay [4] was “C”.
Consider `CSc1cccc2oc(-c3c(C)[nH]c4c(-c5ccccc5)c(C(F)(F)F)nn4c3=O)nc12` [Compound C1047, 5-methyl-6-(4-(methylthio)benzo[d]oxazol-2-yl)-3-phenyl-2-(trifluoromethyl)pyrazolo[1,5-a]pyrimidin-7(4H)-one], for which the IC50 in assay [1] was < 20 µM; in assay [2], < 20 µM; in assay [3], < 5 µM; in assay [4] (Mus musculus, Macrophage, read-out: BMM IC50 M (MCP-1)), 5 to 20 µM.
On to `Cc1[nH]c2c(-c3ccccc3)c(C(F)(F)F)nn2c(=O)c1C(=O)Nc1nc(C2CC2)cs1` [Compound A1095, N-(4-cyclopropylthiazol-2-yl)-5-methyl-7-oxo-3-phenyl-2-(trifluoromethyl)-4,7-dihydropyrazolo[1,5-a]pyrimidine-6-carboxamide], for which the IC50 in assay [1] and in assay [2] was < 20 µM in each case. Moreover, in assay [3], the “BMM IC50 R (RANTES)” value was “C”. In assay [4], the “BMM IC50 M (MCP-1)” value is on record as “C”.
In the case of `CCOC(=O)Cc1[nH]c2c(-c3ccccc3)c(C(F)(F)F)nn2c(=O)c1-c1nc2c(OC)cccc2o1` [Compound C1140, ethyl 2-(6-(4-methoxybenzo[d]oxazol-2-yl)-7-oxo-3-phenyl-2-(trifluoromethyl)-4,7-dihydropyrazolo[1,5-a]pyrimidin-5-yl)acetate], the IC50 in assay [2] is 20 to 250 µM. Further, in assay [3], the “BMM IC50 R (RANTES)” value was “C”. Further, in assay [4], the “BMM IC50 M (MCP-1)” value was “C”.
Take `COc1ccc(Cl)c2oc(-c3c(C)[nH]c4c(-c5ccccc5)c(C(F)(F)F)nn4c3=O)nc12` [Compound C1094, 6-(7-chloro-4-methoxybenzo[d]oxazol-2-yl)-5-methyl-3-phenyl-2-(trifluoromethyl)pyrazolo[1,5-a]pyrimidin-7(4H)-one]: the IC50 was < 20 µM in assay [1], < 20 µM in assay [2] and < 5 µM in assay [3]. For the same compound, in assay [4], the “BMM IC50 M (MCP-1)” value is “C”.
With `COCc1[nH]c2c(-c3ccccc3)c(C(F)(F)F)nn2c(=O)c1-c1nc2c(OC)cccc2o1` [Compound C1056, 6-(4-methoxybenzo[d]oxazol-2-yl)-5-(methoxymethyl)-3-phenyl-2-(trifluoromethyl)pyrazolo[1,5-a]pyrimidin-7(4H)-one], the IC50 in assay [1] and in assay [2] was < 20 µM throughout. For the same compound, the “BMM IC50 M (MCP-1)” value in assay [4] was “C”.
As for `COc1cccc2oc(-c3c(CCC(=O)O)[nH]c4c(-c5ccccc5)c(C(F)(F)F)nn4c3=O)nc12` [Compound C1173, 3-(6-(4-methoxybenzo[d]oxazol-2-yl)-7-oxo-3-phenyl-2-(trifluoromethyl)-4,7-dihydropyrazolo[1,5-a]pyrimidin-5-yl)propanoic acid], the IC50 in assay [1] was 20 to 100 µM; in assay [2] it was < 20 µM. Further, in assay [3], the “BMM IC50 R (RANTES)” value is “C”. In addition, the “BMM IC50 M (MCP-1)” value in assay [4] is listed as “C”.
Regarding `COc1cccc2oc(-c3c(CC(=O)O)[nH]c4c(-c5ccccc5)c(C(F)(F)F)nn4c3=O)nc12` [Compound C1147, 2-(6-(4-methoxybenzo[d]oxazol-2-yl)-7-oxo-3-phenyl-2-(trifluoromethyl)-4,7-dihydropyrazolo[1,5-a]pyrimidin-5-yl)acetic acid], the IC50 in assay [2] was 20 to 250 µM. For the same compound, the “BMM IC50 R (RANTES)” value in assay [3] is “C”. Further, in assay [4], the “BMM IC50 M (MCP-1)” value is reported as “C”.
As for `COc1cccc2oc(-c3c(C)[nH]c4c(-c5ccccc5)c(C(F)(F)F)nn4c3=O)nc12` [Compound C1014, 6-(4-methoxybenzo[d]oxazol-2-yl)-5-methyl-3-phenyl-2-(trifluoromethyl)pyrazolo[1,5-a]pyrimidin-7(4H)-one], the IC50 in assay [1] and in assay [2] was < 20 µM in each case. The “BMM IC50 M (MCP-1)” value in assay [4] was “C”.
`COc1cccc2oc(-c3c(C4CCC(CO)C4)[nH]c4c(-c5ccccc5)c(C(F)(F)F)nn4c3=O)nc12` (stereo not shown) [Compound C1236, 5-(3-(hydroxymethyl)cyclopentyl)-6-(4-methoxybenzo[d]oxazol-2-yl)-3-phenyl-2-(trifluoromethyl)pyrazolo[1,5-a]pyrimidin-7(4H)-one]: the IC50 in assay [2] was < 20 µM. Further, in assay [3], the “BMM IC50 R (RANTES)” value is recorded as “C”. Besides, in assay [4], the “BMM IC50 M (MCP-1)” value was “C”.
Take `Cc1[nH]c2c(-c3ccccc3)c(C(F)(F)F)nn2c(=O)c1-c1nc2ccccc2n1C1CCCCC1` [Compound C1190, 6-(1-cyclohexyl-1H-benzo[d]imidazol-2-yl)-5-methyl-3-phenyl-2-(trifluoromethyl)pyrazolo[1,5-a]pyrimidin-7(4H)-one]: the IC50 in assay [2] lay in the range of 20 to 250 µM. In assay [3], the “BMM IC50 R (RANTES)” value was “C”. In addition, the “BMM IC50 M (MCP-1)” value in assay [4] is “C”.
In the case of `Cc1[nH]c2c(-c3ccccc3)c(C(F)(F)F)nn2c(=O)c1C(=O)Nc1ccccc1NS(=O)(=O)c1ccccc1` [Compound A1059, 5-methyl-7-oxo-3-phenyl-N-(2-(phenylsulfonamido)phenyl)-2-(trifluoromethyl)-4,7-dihydropyrazolo[1,5-a]pyrimidine-6-carboxamide], the IC50 in assay [1] and in assay [2] was < 20 µM each time. The “BMM IC50 M (MCP-1)” value in assay [4] is listed as “C”.
For `COCc1[nH]c2c(-c3ccccc3)c(C(F)(F)F)nn2c(=O)c1-c1c(COC)[nH]c2c(-c3ccccc3)c(C(F)(F)F)nn2c1=O` [Compound C1029, 5,5′-bis(methoxymethyl)-3,3′-diphenyl-2,2′-bis(trifluoromethyl)-[6,6′-bipyrazolo[1,5-a]pyrimidine]-7,7′(4H,4′H)-dione], in assay [2], the IC50 was 20 to 250 µM. Also, the “BMM IC50 R (RANTES)” value in assay [3] is on record as “C”. For the same compound, the “BMM IC50 M (MCP-1)” value in assay [4] is reported as “C”.
`Cc1[nH]c2c(-c3ccccc3)c(C(F)(F)F)nn2c(=O)c1-c1nc2cccc(N)c2[nH]1` [Compound C1008, 6-(7-amino-1H-benzo[d]imidazol-2-yl)-5-methyl-3-phenyl-2-(trifluoromethyl)pyrazolo[1,5-a]pyrimidin-7(4H)-one]: the IC50 is > 100 µM in assay [1] and 20 to 250 µM in assay [2]. Also, the “BMM IC50 M (MCP-1)” value in assay [4] is given as “C”.
With `COc1ccccc1NC(=O)c1c(C)[nH]c2c(C3CCCC3)c(C(F)(F)F)nn2c1=O` [Compound A1052, 3-cyclopentyl-N-(2-methoxyphenyl)-5-methyl-7-oxo-2-(trifluoromethyl)-4,7-dihydropyrazolo[1,5-a]pyrimidine-6-carboxamide], the IC50 in assay [2] fell in the range of 20 to 250 µM. The “BMM IC50 M (MCP-1)” value in assay [4] is on record as “C”.
With `COc1cccc2c1nc(-c1c(C)[nH]c3c(-c4ccccc4)c(C(F)(F)F)nn3c1=O)n2C1CCCCC1` [Compound C1176, 6-(1-cyclohexyl-4-methoxy-1H-benzo[d]imidazol-2-yl)-5-methyl-3-phenyl-2-(trifluoromethyl)pyrazolo[1,5-a]pyrimidin-7(4H)-one], the IC50 in assay [2] was in the range of 20 to 250 µM. The “BMM IC50 R (RANTES)” value in assay [3] is given as “C”. In addition, the “BMM IC50 M (MCP-1)” value in assay [4] is “C”.
